The results in this text go back to PMC2752324 (Bioorganic & medicinal chemistry letters, 2008).

The target in the assay is T1, tissue-nonspecific alkaline phosphatase (TNAP) (Homo sapiens, UniProt P05186).
T1 sequence (P05186 18-502 limits assumed): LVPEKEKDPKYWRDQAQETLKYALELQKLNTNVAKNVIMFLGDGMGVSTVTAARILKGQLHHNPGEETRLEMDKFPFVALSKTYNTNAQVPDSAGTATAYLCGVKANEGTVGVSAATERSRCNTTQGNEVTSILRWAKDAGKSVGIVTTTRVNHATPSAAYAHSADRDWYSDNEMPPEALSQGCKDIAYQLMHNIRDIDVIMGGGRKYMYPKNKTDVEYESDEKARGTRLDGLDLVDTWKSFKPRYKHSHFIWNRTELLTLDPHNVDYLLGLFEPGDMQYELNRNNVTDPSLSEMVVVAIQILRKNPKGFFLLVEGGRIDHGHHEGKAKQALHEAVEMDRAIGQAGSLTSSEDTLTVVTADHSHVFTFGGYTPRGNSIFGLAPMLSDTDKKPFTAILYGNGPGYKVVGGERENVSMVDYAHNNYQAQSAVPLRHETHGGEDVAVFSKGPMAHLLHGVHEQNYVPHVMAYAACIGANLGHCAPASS
Briefly: TNAP luminescence-based inhibition assay. It is filed as biochemical.

Each structure is given as a SMILES string.

Where the note is “4 versus tricyclic derivative 3”, `O=C(c1[nH]nc2c1COc1ccccc1-2)N1CCCC1` [Compound 4] displayed an improvement in potency of 3 fold.

As to `O=C(NCCO)c1cc(-c2ccc(Cl)c(Cl)c2Cl)n[nH]1` [Compound 9v], the “selectivity for TNAP” value (versus PLAP and GAPDH) is reported as “at least 2000 fold”. For the same compound, the “times more potent against TNAP” value (versus screening hit 1) is “approximately 200 times”.
